Test results published in patent publication US5023340A, “Pyrrolizioines and synthesis thereof” (Monsanto Company, priority 1989, dated 1991).

Legend:
[1] = system: processing forms of α-mannosidase; conditions: literature; cited from earlier work
lysosomal α-mannosidase [2] = biological target: T1, lysosomal α-mannosidase (Homo sapiens, UniProt O00754); assay: inhibition of human liver glycosidases: lysosomal α-mannosidase; format: biochemical
T1 construct: from tissue; host or cells: human liver
T1 sequence (O00754 50-601 limits assumed): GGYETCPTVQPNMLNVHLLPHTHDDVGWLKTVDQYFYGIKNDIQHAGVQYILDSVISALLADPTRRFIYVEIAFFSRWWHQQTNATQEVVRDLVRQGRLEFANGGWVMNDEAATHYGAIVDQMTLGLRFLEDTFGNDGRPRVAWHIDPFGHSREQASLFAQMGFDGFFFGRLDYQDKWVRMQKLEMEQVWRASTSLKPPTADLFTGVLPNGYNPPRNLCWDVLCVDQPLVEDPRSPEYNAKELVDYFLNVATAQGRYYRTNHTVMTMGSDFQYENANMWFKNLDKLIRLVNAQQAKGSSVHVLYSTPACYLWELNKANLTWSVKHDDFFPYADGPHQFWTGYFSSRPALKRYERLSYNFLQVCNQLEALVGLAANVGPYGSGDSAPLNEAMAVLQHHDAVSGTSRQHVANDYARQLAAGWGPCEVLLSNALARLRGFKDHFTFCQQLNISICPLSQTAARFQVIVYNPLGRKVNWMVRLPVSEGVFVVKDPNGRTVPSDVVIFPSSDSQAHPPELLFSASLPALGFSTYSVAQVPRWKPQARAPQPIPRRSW
T1 sequence (O00754 602-882 limits assumed): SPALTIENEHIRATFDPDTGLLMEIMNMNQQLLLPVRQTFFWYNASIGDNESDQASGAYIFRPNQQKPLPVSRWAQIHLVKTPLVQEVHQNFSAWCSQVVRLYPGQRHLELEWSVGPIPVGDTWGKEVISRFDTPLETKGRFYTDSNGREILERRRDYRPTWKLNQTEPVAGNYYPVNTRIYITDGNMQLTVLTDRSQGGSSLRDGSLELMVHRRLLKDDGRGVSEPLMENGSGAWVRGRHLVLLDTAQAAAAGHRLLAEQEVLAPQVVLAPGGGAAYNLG
T1 sequence (O00754 883-1011 limits assumed): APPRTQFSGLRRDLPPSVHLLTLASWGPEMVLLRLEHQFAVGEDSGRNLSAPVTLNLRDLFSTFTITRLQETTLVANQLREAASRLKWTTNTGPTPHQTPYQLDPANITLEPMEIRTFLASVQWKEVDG
Text: (§1) The effects of the ring contracted swainsonines (3) and (4) on the inhibition of 14 human liver glycosidases was studied by the assay methods described in Palamarczyk et al., Arch. Biochem. Biophys. 243, 35 (1985); Daniel et al., Glycoconjugate J. 6, 229 (1989) and Cenci di Bello et al., Biochem. J. 259, 855 (1989). […] Chem. Commun.

lysosomal α-mannosidase [3] = conditions: literature; cited from earlier work
almond β-glucosidase = assay: inhibition of almond β-glucosidase; format: biochemical
snail β-mannosidase = assay: inhibition of snail β-mannosidase; format: biochemical
yeast α-glucosidase = assay: inhibition of yeast α-glucosidase; format: biochemical
α-fucosidase = assay: inhibition of human liver glycosidases: α-fucosidase; format: biochemical; conditions: 1 mM
Text: as §1

bovine β-hexosaminidase = assay: inhibition of bovine β-hexosaminidase; format: biochemical
[4] = system: Golgi II processing mannosidase; assay: inhibition of human liver glycosidases: Golgi II mannosidase; format: biochemical; conditions: compared with swainsonine
Text: as §1

glycosidases = assay: inhibition of glycosidases (general statement); format: biochemical; conditions: compared with swainsonine
bovine β-galactosidase = assay: inhibition of bovine β-galactosidase; format: biochemical
[5] = biological target: green coffee bean α-galactosidase (Coffea arabica, UniProt Q42656); assay: inhibition of green coffee bean α-galactosidase; format: biochemical
Chain of green coffee bean α-galactosidase (Q42656 16-378): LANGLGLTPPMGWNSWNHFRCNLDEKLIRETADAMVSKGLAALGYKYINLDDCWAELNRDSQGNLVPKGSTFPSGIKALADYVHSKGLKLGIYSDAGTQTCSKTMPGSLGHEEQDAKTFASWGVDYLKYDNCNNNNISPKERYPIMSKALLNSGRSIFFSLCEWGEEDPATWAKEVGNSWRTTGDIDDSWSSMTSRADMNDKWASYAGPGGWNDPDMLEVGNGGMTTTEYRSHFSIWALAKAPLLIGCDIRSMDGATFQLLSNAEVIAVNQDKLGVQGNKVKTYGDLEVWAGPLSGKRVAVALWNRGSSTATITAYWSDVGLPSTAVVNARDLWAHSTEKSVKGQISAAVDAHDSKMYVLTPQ

Jack bean α-mannosidase = biological target: T2, Jack bean α-mannosidase (Canavalia ensiformis, UniProt C0HJB3); assay: inhibition of Jack bean α-mannosidase; format: biochemical
T2 sequence (C0HJB3 1-981): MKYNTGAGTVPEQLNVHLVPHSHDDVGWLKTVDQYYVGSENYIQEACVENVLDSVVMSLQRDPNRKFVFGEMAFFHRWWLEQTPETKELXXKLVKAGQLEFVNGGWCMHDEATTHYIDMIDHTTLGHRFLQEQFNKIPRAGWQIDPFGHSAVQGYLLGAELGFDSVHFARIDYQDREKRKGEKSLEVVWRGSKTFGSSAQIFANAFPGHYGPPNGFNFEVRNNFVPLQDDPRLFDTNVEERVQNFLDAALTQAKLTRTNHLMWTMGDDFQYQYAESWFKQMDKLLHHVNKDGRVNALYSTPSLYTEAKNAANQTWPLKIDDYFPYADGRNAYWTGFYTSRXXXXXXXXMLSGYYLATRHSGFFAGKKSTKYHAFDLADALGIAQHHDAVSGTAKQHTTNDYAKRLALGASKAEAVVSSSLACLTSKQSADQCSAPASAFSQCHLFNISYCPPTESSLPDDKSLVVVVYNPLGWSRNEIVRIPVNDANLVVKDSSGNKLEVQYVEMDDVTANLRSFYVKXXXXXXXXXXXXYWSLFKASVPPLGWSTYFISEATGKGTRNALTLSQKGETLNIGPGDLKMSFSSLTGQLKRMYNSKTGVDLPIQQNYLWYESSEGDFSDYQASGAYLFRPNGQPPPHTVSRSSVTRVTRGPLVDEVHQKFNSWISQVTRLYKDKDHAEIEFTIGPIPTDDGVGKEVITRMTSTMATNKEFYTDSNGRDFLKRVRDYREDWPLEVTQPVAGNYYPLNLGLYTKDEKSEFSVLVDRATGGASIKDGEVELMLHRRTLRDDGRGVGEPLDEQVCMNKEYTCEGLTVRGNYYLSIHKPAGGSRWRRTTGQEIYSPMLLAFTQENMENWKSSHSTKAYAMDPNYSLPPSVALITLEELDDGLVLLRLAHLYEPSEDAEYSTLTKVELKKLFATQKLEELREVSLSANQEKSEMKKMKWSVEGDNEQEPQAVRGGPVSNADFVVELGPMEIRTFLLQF

[6] = system: broad specificity β-galactosidase/β-glucosidase; assay: inhibition of human liver glycosidases: broad specificity β-galactosidase/β-glucosidase; format: biochemical
Text: as §1

β-galactosidase = assay: inhibition of human liver glycosidases: β-galactosidase; format: biochemical; conditions: 1 mM
Text: as §1

[7] = system: neutral processing mannosidase; assay: inhibition of human liver glycosidases: neutral processing mannosidase; format: biochemical; conditions: compared with swainsonine
Text: as §1

[8] = system: bovine kidney α-fucosidase; assay: inhibition of bovine kidney α-fucosidase; format: biochemical
[9] = system: Aspergillus niger α-galactosidase; assay: inhibition of Aspergillus niger α-galactosidase; format: biochemical
[10] = system: human liver α-mannosidases; assay: inhibition of human liver α-mannosidases; format: biochemical
Text: as §1

amyloglucosidase = conditions: literature (Nash et al.); cited from earlier work

Structure (SMILES): O[C@H]1[C@H]2[C@H](O)CCCN2C[C@H]1O [Compound 1, (1S,2R,8R,8aR)-1,2,8-Trihydroxyindolizidine]
- inhibition of some of the processing forms of α-mannosidase [1]: potent and specific inhibitor
- Ki (lysosomal α-mannosidase [2]; lysosomal α-mannosidase, comparator): 0.07 µM
- inhibition of lysosomal α-mannosidase (lysosomal α-mannosidase [3]): potent and specific inhibitor

Structure (SMILES): O[C@H]1[C@H]2[C@H](O)CCN2C[C@H]1O [Compound 3, (1S,2R,7R,7aR)-1,2,7-Trihydroxypyrrolizidine]
- inhibition of almond β-glucosidase (almond β-glucosidase): no significant inhibition
- inhibition of snail β-mannosidase (snail β-mannosidase): no significant inhibition
- inhibition of yeast α-glucosidase (yeast α-glucosidase): no significant inhibition
- inhibition of α-fucosidase (α-fucosidase): 33%
- inhibition of bovine β-hexosaminidase (bovine β-hexosaminidase): no significant inhibition
- inhibition of Golgi II processing mannosidase [4]: less effective
- glycosidase inhibitory activity (glycosidases): weaker such activity than swainsonine
- inhibition of bovine β-galactosidase (bovine β-galactosidase): no significant inhibition
- inhibition of green coffee bean α-galactosidase [5]: no significant inhibition
- Ki (Jack bean α-mannosidase): 1700 µM
- IC50 (lysosomal α-mannosidase [2]; human liver lysosomal α-mannosidase, read-out: I50): 1500 µM
- inhibition of broad specificity β-galactosidase/β-glucosidase ([6]; 1 mM): 25%
- inhibition of β-galactosidase (β-galactosidase): 69%
- inhibition of neutral processing mannosidase [7]: less effective
- inhibition of bovine kidney α-fucosidase [8]: no significant inhibition
- inhibition of Aspergillus niger α-galactosidase [9]: no significant inhibition

Structure (SMILES): O[C@H]1[C@H]2[C@@H](O)CCN2C[C@H]1O [Compound 4, (1S,2R,7S,7aR)-1,2,7-Trihydroxypyrrolizidine]
- glycosidase inhibitory activity (glycosidases): weaker such activity than swainsonine
- inhibition of human liver α-mannosidases [10]: does not inhibit
- inhibition of broad specificity β-galactosidase/β-glucosidase ([6]; concentration not given): 40%

Structure (SMILES): OC[C@@H]1[C@@H](O)[C@@H](O)[C@H]2[C@@H](O)CCN21 [Compound 5, 1,7a-diepialexine]
- amyloglucosidase inhibition (amyloglucosidase): powerful amyloglucosidase inhibitor
